Assay results from patent US10626106B2, “Substituted pyrrolidine amides I” (Gruenenthal GmbH, priority 2017, dated 2020).
Where two headings read alike, the source gives them in different places.

Molecular target: T1, Human Glucocorticoid Receptor (hGR) (Homo sapiens, UniProt P04150)
T1 construct: the resultant supernatant (=cytosol of IM9 cells) was centrifuged at 103,000 g for 60 minutes; host or cells: IM9 human lymphoblast cell line (cytosol fraction)
T1 sequence (P04150 1-777): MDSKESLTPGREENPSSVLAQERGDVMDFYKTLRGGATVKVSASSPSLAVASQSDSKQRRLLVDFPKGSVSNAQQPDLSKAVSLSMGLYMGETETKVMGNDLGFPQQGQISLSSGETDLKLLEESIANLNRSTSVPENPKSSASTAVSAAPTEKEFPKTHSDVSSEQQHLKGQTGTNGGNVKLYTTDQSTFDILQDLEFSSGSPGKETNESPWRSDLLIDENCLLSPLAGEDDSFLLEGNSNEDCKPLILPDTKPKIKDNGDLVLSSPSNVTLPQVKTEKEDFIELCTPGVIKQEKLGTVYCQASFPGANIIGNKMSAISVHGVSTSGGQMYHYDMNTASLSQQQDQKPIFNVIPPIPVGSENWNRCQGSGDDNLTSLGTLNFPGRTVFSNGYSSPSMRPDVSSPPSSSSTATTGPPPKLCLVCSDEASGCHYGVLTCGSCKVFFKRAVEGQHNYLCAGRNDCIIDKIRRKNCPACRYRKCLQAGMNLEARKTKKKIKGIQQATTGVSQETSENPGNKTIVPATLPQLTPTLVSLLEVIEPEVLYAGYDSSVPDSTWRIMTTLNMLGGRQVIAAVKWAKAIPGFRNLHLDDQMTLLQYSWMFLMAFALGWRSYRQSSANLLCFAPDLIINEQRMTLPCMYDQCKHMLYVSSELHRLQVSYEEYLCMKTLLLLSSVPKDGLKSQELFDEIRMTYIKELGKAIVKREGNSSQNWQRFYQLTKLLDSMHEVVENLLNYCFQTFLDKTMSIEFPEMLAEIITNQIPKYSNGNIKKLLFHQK
Assay: Human Glucocorticoid Receptor (hGR) Ligand-Binding Assay (competitive 3H-dexamethasone binding, IM9 cytosol)
Details: read-out: % inhibition hGR at 1 μM
Description: Human Glucocorticoid Receptor (hGR) Ligand-Binding Assay
Potential selective glucocorticoid receptor modulators of this intervention can be tested for their binding affinity at the glucocorticoid receptor using the binding assay described below.
Preferably, the glucocortitcoid receptor extracted from cytosol of IM9 cells is used for competitive radioligand binding assays to calculate the IC50 values and binding affinity (Ki value) of the compounds according to the present invention. Preferably, a fixed concentration of the radioligand 3H-dexamethasone and a range of concentrations of compounds according to the present invention (as unlabeled competitors of dexamethasone) are mixed with the extracted glucocorticoid receptor in order to measure the potency/affinity with which they compete for the binding of the radioligand. Preferably, by using competition curves the IC50 which is the concentration of competing ligand that displaces 50% of the specific binding of the radioligand is determined. Finally this IC50 value is converted to a Ki value.
The human lymphoblast cell line IM9 (ATCC, Bethesda, Md.) were cultivated in RPMI 1640 media containing 10% fetal bovine serum, penicillin (100 U/ml), streptomycin (100 μg/ml), and 2 mM L-glutamine at […] and 7% CO2 in a humidified incubator. Cells were centrifuged for 10 minutes at 1500 g and were washed in PBS and repelleted. Cell were then resuspended in homogenization buffer consisting of: 10 mM TES, 10 mM sodium molybdate, 1 mM EDTA, pH 7.4, 20 mM 2-mercaptoethanol, and 10% glycerol. Disruption of the cells was performed by nitrogen cavitation using 2×15 minutes at 600 to 750 psi nitrogen in a N2 cavitator at 0° C. The cell preparation was then centrifuged at 27,000 g for 15 minutes, and the resultant supernatant (=cytosol of IM9 cells) was centrifuged at 103,000 g for 60 minutes at 4° C. The amount of protein in the supernatant fraction was determined using a BCA assay kit and aliquots were snap frozen in a dry ice-acetone bath and stored at −70° C. Competitive binding assays were done in duplicate in homogenization buffer with a total volume of 200 μl. To this end, 1 mg of IM9 cytosol, 0.05 μCi (1.5 nM) of 3H-dexamethasone […] and compounds according to the present invention (=unlabeled competitors of dexamethasone; range of concentrations) were mixed. The reaction was stopped after incubation at 0° C. for 16 to 18 hours by the addition of 100 μl of a charcoal-dextran mixture (2% activated charcoal, 0.5% dextran in 10 mM Tris, 1 mM EDTA, pH 7.4). Another incubation step at 0° C. for 10 minutes followed before the samples were centrifuged for 5 minutes at 8200 g. 100 μl of the supernatant) was finally assayed for radioactivity by liquid scintillationspectrometry, and the IC50 values were determined graphically and were converted to Ki values.

[1] = compound at 1 μM, competition with 3H-dexamethasone, cytosol of IM9 cells

Compound	inhibition at 1 µM [1] [%]	inhibition at 1 µM [%]
Cn1cc(-n2ncc3cc(N4C(=O)C[C@H](NC(=O)c5cscn5)[C@H]4c4ccccc4)ccc32)ccc1=O [Example 44, N-[(2R,3S)-1-[1-(1-methyl-6-oxo-3-pyridyl)indazol-5-yl]-5-oxo-2-phenyl-pyrrolidin-3-yl]thiazole-4-carboxamide]	60 to 85	–
CC(F)(F)C(=O)N[C@H]1CC(=O)N(c2ccc3c(cnn3-c3cccnc3)c2)C1c1ccccc1 (stereo in doubt) [Example 7, trans-2,2-difluoro-N-(5-oxo-2-phenyl-1-(1-(pyridin-3-yl)-1H-indazol-5-yl)pyrrolidin-3-yl)propanamide]	–	> 85
Cn1cc(Cn2ncc3cc(N4C(=O)C[C@H](NC(=O)C(C)(F)F)C4c4ccccc4)ccc32)ccc1=O (stereo in doubt) [Example 34, trans-2,2-difluoro-N-(1-(1-((1-methyl-6-oxo-1,6-dihydropyridin-3-yl)methyl)-1H-indazol-5-yl)-5-oxo-2-phenylpyrrolidin-3-yl)propanamide]	40 to 60	–
Cn1cc(-n2ncc3cc(N4C(=O)C[C@H](NC(=O)C(C)(F)F)[C@H]4c4ccccc4F)ccc32)ccc1=O [Example 6, 2,2-difluoro-N-((2R,3S)-2-(2-fluorophenyl)-1-(1-(1-methyl-6-oxo-1,6-dihydropyridin-3-yl)-1H-indazol-5-yl)-5-oxopyrrolidin-3-yl)propanamide]	> 85	–
Cn1cc(-n2ncc3cc(N4C(=O)C[C@H](NC(=O)C5CC5)[C@H]4c4ccccc4F)ccc32)ccc1=O [Example 39, N-((2R,3S)-2-(2-fluorophenyl)-1-(1-(1-methyl-6-oxo-1,6-dihydropyridin-3-yl)-1H-indazol-5-yl)-5-oxopyrrolidin-3-yl)cyclopropanecarboxamide]	60 to 85	–
Cc1cnc(C(=O)N[C@H]2CC(=O)N(c3ccc4c(cnn4-c4ccc(=O)n(C)c4)c3)[C@@H]2c2ccccc2)s1 (relative stereo) [Example 13, 5-methyl-N-(trans-1-(1-(1-methyl-6-oxo-1,6-dihydropyridin-3-yl)-1H-indazol-5-yl)-5-oxo-2-phenylpyrrolidin-3-yl)thiazole-2-carboxamide]	> 85	–
